Among the data in patent US20070105864A1, “Methods for inhibiting protein kinases” (Schering Corporation, priority 2005, published 2007) are IC50 values, retold here.

The target of experiment [1] is T1, Cyclin E/CDK2 (Homo sapiens, UniProt P24941).
T1 construct: made in house; host or cells: SF9 cells (baculovirus co-infection)
Briefly: CDK2 Assay (Cyclin E/CDK2 in vitro kinase assay). Type of experiment: biochemical. The conditions noted are these: read-out: CDK2 IC50. The text has this:
BACULOVIRUS CONSTRUCTIONS: Cyclin E was cloned into pVL1393 (Pharmingen, La Jolla, Calif.) by PCR, with the addition of 5 histidine residues at the amino-terminal end to allow purification on nickel resin. The expressed protein was approximately 45 kDa. CDK2 was cloned into pVL1393 by PCR, with the addition of a haemaglutinin epitope tag at the carboxy-terminal end (YDVPDYAS). The expressed protein was approximately 34 kDa in size.
ENZYME PRODUCTION: Recombinant baculoviruses expressing cyclin E and CDK2 were co-infected into SF9 cells at an equal multiplicity of infection (MOI=5), for 48 hrs. Cells were harvested by centrifugation at 1000 RPM for 10 minutes, then pellets lysed on ice for 30 minutes in five times the pellet volume of lysis buffer containing 50 mM Tris pH 8.0, 1 50 mM NaCl, 1% NP40, 1 mM DTT and protease inhibitors (Roche Diagnostics GmbH, Mannheim, Germany). Lysates were spun down at 15000 RPM for 10 minutes and the supernatant retained. 5 ml of nickel beads (for one liter of SF9 cells) were washed three times in lysis buffer (Qiagen GmbH, Germany). Imidazole was added to the baculovirus supernatant to a final concentration of 20 mM, then incubated with the nickel beads for 45 minutes at 4° C. Proteins were eluted with lysis buffer containing 250 mM imidazole. Eluate was dialyzed overnight in 2 liters of kinase buffer containing 50 mM Tris pH 8.0, 1 mM DTT, 10 mM MgCl2, 100 uM sodium orthovanadate and 20% glycerol. Enzyme was stored in aliquots at −70° C.
IN VITRO KINASE ASSAY: Cyclin E/CDK2 kinase assays were performed in low protein binding 96-well plates (Corning Inc, Corning, N.Y.). Enzyme was diluted to a final concentration of 50 μg/ml in kinase buffer containing 50 mM Tris pH 8.0, 10 mM MgCl2, 1 mM DTT, and 0.1 mM sodium orthovanadate. The substrate used in these reactions was a biotinylated peptide derived from Histone H1 (from Amersham, UK). The substrate was thawed on ice and diluted to 2 μM in kinase buffer. Compounds were diluted in 10% DMSO to desirable concentrations. For each kinase reaction, 20 μl of the 50 µg/ml enzyme solution (1 μg of enzyme) and 20 μl of the 2 μM substrate solution were mixed, then combined with 10 μl of diluted compound in each well for testing. The kinase reaction was started by addition of 50 μl of 2 μM ATP and 0.1 μCi of 33P-ATP (from Amersham, UK). The reaction was allowed to run for 1 hour at room temperature. The reaction was stopped by adding 200 μl of stop buffer containing 0.1% Triton X-100, 1 mM ATP, 5 mM EDTA, and 5 mg/ml streptavidine coated SPA beads (from Amersham, UK) for 15 minutes. The SPA beads were then captured onto a 96-well GF/B filter plate (Packard/Perkin Elmer Life Sciences) using a Filtermate universal harvester (Packard/Perkin Elmer Life Sciences.). Non-specific signals were eliminated by washing the beads twice with 2M NaCl then twice with 2 M NaCl with 1% phosphoric acid. The radioactive signal was then measured using a TopCount 96 well liquid scintillation counter (from Packard/Perkin Elmer Life Sciences).
(§1) IC50 DETERMINATIONS: Dose-response curves were plotted from inhibition data generated, each in duplicate, from 8 point serial dilutions of inhibitory compounds. Concentration of compound was plotted against % kinase activity, calculated by CPM of treated samples divided by CPM of untreated samples. To generate IC50 values, the dose-response curves were then fitted to a standard sigmoidal curve and IC50 values were derived by nonlinear regression analysis.

Experiment [2] addresses T2, recombinant His-CHK1 (Homo sapiens, UniProt O14757).
T2 construct: His-CHK1, In House Lot P976, MW ˜30 KDa, stored at −80 °C; fused on or other part: His tag
T2 sequence (O14757 1-265 limits assumed): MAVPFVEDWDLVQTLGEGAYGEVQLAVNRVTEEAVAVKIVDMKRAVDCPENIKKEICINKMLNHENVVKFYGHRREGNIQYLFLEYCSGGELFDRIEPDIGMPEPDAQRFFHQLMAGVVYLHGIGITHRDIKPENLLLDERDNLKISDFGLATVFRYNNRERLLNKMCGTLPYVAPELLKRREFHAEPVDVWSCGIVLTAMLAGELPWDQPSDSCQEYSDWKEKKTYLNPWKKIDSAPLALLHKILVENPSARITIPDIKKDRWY
Briefly: CHK1 SPA Assay. Type of experiment: biochemical. The following applies: read-out: CHK-1 IC50. The method, then:
An in vitro assay was developed that utilizes recombinant His-CHK1 expressed in the baculovirus expression system as an enzyme source and a biotinylated peptide based on CDC25C as substrate (biotin-[…]).
1) CDC25C Ser 216 C-term Biotinylated peptide substrate (25 mg), stored at −20 °C, Custom Synthesis by Research Genetics: biotin-[…] 2595.4 MW
2) His-CHK1 In House lot P976, 235 ug/mL, stored at −80 °C.
1) Kinase Buffer: 50 mM Tris pH 8.0; 10 mM MgCl2; 1 mM DTT
2) His-CHK1, In House Lot P976, MW ˜30 KDa, stored at −80 °C. […] For 1 plate (100 r×n): dilute 8 μL of 235 μg/mL (7.83 uM) stock in 2 mL Kinase Buffer. This makes a 31 nM mixture. Add 20 μL/well. This makes a final reaction concentration of 6 nM.
3) CDC25C Biotinylated peptide.
Dilute CDC25C to 1 mg/mL (385 uM) stock and store at −20° C. For 1 plate (100 r×n): dilute 10 1L of 1 mg/mL peptide stock in 2 ml Kinase Buffer. This gives a 1.925 μM mix. Add 20 1L/r×n. This makes a final reaction concentration of 385 nM.
For 1 plate (100 r×n): dilute 10 μL of 1 mM ATP (cold) stock and 2 uL fresh P33-ATP (20 μCi) in 5 ml Kinase Buffer. This gives a 2 μM ATP (cold) solution; add 50 μl/well to start the reaction. Final volume is 100 μl/r×n so the final reaction concentrations will be 1 μM ATP (cold) and 0.2 uCi/r×n.
For 1 plate add: To 10 mL Wash Buffer 2 (2M NaCl 1% H3PO4): 1 mL SPA bead slurry (50 mg); Add 100 μL/well
6) Wash buffer 1: 2 M NaCl
7) Wash buffer 2: 2 M NaCl, 1% H3PO4
Dispense 10 μl/r×n to appropriate wells. Add 10 μL 10% DMSO to positive (CHK1+CDC25C+ATP) and negative (CHK1+ATP only) control wells. 2) Thaw enzyme on ice—dilute enzyme to proper concentration in kinase buffer (see Reaction Mixtures) and dispense 20 μl to each well. 3) Thaw the Biotinylated substrate on ice and dilute in kinase buffer (see Reaction Mixtures). Add 20 μL/well except to negative control wells. Instead, add 20 uL Kinase Buffer to these wells. 4) Dilute ATP (cold) and P33-ATP in kinase buffer (see Reaction Mixtures). Add 50 μL/well to start the reaction. 5) Allow the reaction to run for 2 hours at room temperature. 6) Stop reaction by adding 100 uL of the SPA beads/stop solution (see Reaction Mixtures) and leave to incubate for 15 minutes before harvest 7) Place a blank Packard GF/B filter plate into the vacuum filter device (Packard plate harvester) and aspirate […] water through to wet the system. 8) Take out the blank and put in the Packard GF/B filter plate. 9) Aspirate the reaction through the filter plate. 10) Wash: 200 ml each wash; 1× with 2M NaCl; 1× with 2M NaCl/1% H3PO4 11) Allow filter plate to dry 15 min. 12) Put TopSeal-A adhesive on top of filter plate. 13) Run filter plate in Top Count
Settings: • Data mode: CPM • Radio nuclide: Manual SPA:P33 • Scintillator: Liq/plast • Energy Range: Low
as §1

As to `Cc1cc(Nc2nc(C3=CCCNC3)cn3c(-c4cnn(C)c4)cnc23)sc1C(=O)N(C)C`, the IC50 in experiment [1] amounted to 24100 nM; in experiment [2] it was 16 nM.
Taken in the same sequence, the figures for `Cc1cc(Nc2nc(C3=CCCNC3)cn3c(-c4cnn(C)c4)cnc23)sc1C(N)=O` were 16200 nM and 23 nM.
With `Cn1cc(-c2cnc3c(Nc4sncc4C(C)(C)C)nc(CCN)cn23)cn1`, the IC50 in experiment [1] came to 14100 nM; in experiment [2], 11 nM.
For `Cc1cc(Nc2nc(CCN)cn3c(-c4cnn(C)c4)cnc23)sc1C(N)=O`, in that order: 17900 nM and 19 nM.
For `CCNC(=O)c1sc(Nc2nc(CCN)cn3c(-c4cnn(C)c4)cnc23)cc1C`, in that order: 41300 nM and 15 nM.
Regarding `Cc1cc(Nc2nc(C3=CCCNC3)cn3c(-c4cnn(C)c4)cnc23)sc1C(=O)NC1CCN(S(C)(=O)=O)CC1`, the IC50 in experiment [1] is 41000 nM; in experiment [2] it was 24 nM.
Consider `CCNC(=O)c1sc(Nc2nc(C3=CCCNC3)cn3c(-c4cnn(C)c4)cnc23)cc1C`, for which the IC50 in experiment [2] came to 15 nM.
As for `Cn1cc(-c2cnc3c(Nc4ccns4)nc(CN)cn23)cn1`, the IC50 in experiment [1] worked out at 550 nM; in experiment [2] it was 17 nM.
Consider `CCN(CC)S(=O)(=O)c1sc(Nc2nc(C3=CCCNC3)cn3c(-c4cnn(C)c4)cnc23)cc1C`, for which the IC50 was found to be 18300 nM in experiment [1] and 19 nM in experiment [2].
For `Cc1cc(Nc2nc(C3=CCCNC3)cn3c(-c4cnn(C)c4)cnc23)sc1S(=O)(=O)N1CCOCC1`, the IC50 in experiment [1] is 5950 nM; in experiment [2] it was 7 nM.
Consider `Cc1cc(Nc2nc(C3=CCCNC3)cn3c(-c4cnn(C)c4)cnc23)sc1S(=O)(=O)N1CCCC1`, for which the IC50 in experiment [1] worked out at 5170 nM; in experiment [2], 6 nM.
With `CCNS(=O)(=O)c1sc(Nc2nc(C3=CCCNC3)cn3c(-c4cnn(C)c4)cnc23)cc1C`, the IC50 in experiment [2] turned out to be 10 nM.
With `Cc1cc(Nc2nc(CCN)cn3c(-c4cnn(C)c4)cnc23)sc1S(=O)(=O)N(C)C`, in experiment [2], the IC50 is 14 nM.
On the same count and under the same terms, the value for `Cc1cc(Nc2nc(CCNCC3CC3)cn3c(-c4cnn(C)c4)cnc23)sc1S(=O)(=O)N(C)C` was 10 nM.
Still for that read-out and setting: for `Cc1cc(Nc2nc(C3CCCNC3)cn3c(-c4cnn(C)c4)cnc23)sc1S(=O)(=O)N(C)C` (stereo not drawn) the value was 12 nM; for `Cc1cc(Nc2nc(SC3CCNC3)cn3c(-c4cnn(C)c4)cnc23)sn1` (stereo not drawn), 19 nM.
Same read-out and setting: the value for `Cc1cc(Nc2nc(C3=CCCNC3)cn3c(-c4cnn(C)c4)cnc23)sc1S(=O)(=O)N1CCC1` was 12 nM.
